Reference: PubChem BioAssay AID248 (DTP/NCI, 2004)
Where “and” joins values, the source holds several entries; their conditions need not be identical. Identical values can stand only once. Toxic doses and inconclusive results are not listed.

System: L1210 leukemia ip in BDF1 mice, survival T/C
Assay: NCI In Vivo Anticancer Drug Screen. Data for tumor model L1210 Leukemia (intraperitoneal) in B6D2F1 (BDF1) mice
Details: endpoint: mean survival time, higher = longer survival
Outline: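 Each compound was tested against a transplantable tumor grown in mice. The endpoint was survival, with treated animals benchmarked against vehicle controls as a simple ratio.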

[1] = dose: 50.0 mg/kg/injection, schedule: Q01DX009 (ip), vehicle: Klucel (hydroxypropylcellulose) (HPC)
[2] = dose: 100.0 mg/kg/injection, schedule: Q01DX009 (ip), vehicle: Klucel (hydroxypropylcellulose) (HPC)
[3] = dose: 200.0 mg/kg/injection, schedule: Q01DX009 (ip), vehicle: Klucel (hydroxypropylcellulose) (HPC)
[4] = dose: 100.0 mg/kg/injection, schedule: Q01DX009 (ip), vehicle: saline
[5] = dose: 400.0 mg/kg/injection, schedule: Q01DX009 (ip), vehicle: Klucel (hydroxypropylcellulose) (HPC)
[6] = dose: 100.0 mg/kg/injection, schedule: Q04DX002 (ip), vehicle: Klucel (hydroxypropylcellulose) (HPC)
[7] = dose: 200.0 mg/kg/injection, schedule: Q04DX002 (ip), vehicle: Klucel (hydroxypropylcellulose) (HPC)
[8] = dose: 75.0 mg/kg/injection, schedule: Q01DX001 (ip), vehicle: saline

Compound: O=c1[nH]cnc2cc(Cl)ccc12
- T/C [1]: 91 % of control
- T/C [2]: 102 % of control
- T/C [3]: 100 % of control

Compound: CCOCCC=O
- T/C (dose: 50.0 mg/kg/injection, schedule: Q01DX009 (ip), vehicle: saline): 97 % of control
- T/C [4]: 91 % of control
- T/C (dose: 200.0 mg/kg/injection, schedule: Q01DX009 (ip), vehicle: saline): 91 % of control

Compound: CCCCOS(=O)(=O)c1ccc(N)cc1
- T/C [1]: 229 % of control
- T/C [2]: 90 % of control
- T/C [3]: 93 % of control

Compound: C=CCNC(=S)NNC(=O)c1ccncc1
- T/C [2]: 107 % of control
- T/C [3]: 108 % of control
- T/C [5]: 104 % of control

Compound: C=CCN(CC=C)c1nc(N(CC)CC)nc(N(CC)CC)n1
- T/C (dose: 25.6 mg/kg/injection, schedule: Q04DX002 (ip), vehicle: saline with Tween-80): 91 % of control
- T/C (dose: 64.0 mg/kg/injection, schedule: Q04DX002 (ip), vehicle: saline with Tween-80): 97 % of control
- T/C (dose: 160.0 mg/kg/injection, schedule: Q04DX002 (ip), vehicle: saline with Tween-80): 102 % of control
- T/C (dose: 400.0 mg/kg/injection, schedule: Q04DX002 (ip), vehicle: saline with Tween-80): 112 % of control

Compound: CC(=O)OC(C)(/N=N/C(C)(OC(C)=O)c1ccc(Cl)cc1)c1ccc(Cl)cc1 (stereo not given)
- T/C (dose: 25.0 mg/kg/injection, schedule: Q01DX009 (ip), vehicle: gum acacia): 113 % of control
- T/C (dose: 25.0 mg/kg/injection, schedule: Q04DX003 (ip), vehicle: gum acacia): 98 % of control
- T/C (dose: 50.0 mg/kg/injection, schedule: Q01DX009 (ip), vehicle: gum acacia): 100 % of control
- T/C (dose: 50.0 mg/kg/injection, schedule: Q04DX003 (ip), vehicle: gum acacia): 98 % of control
- T/C (dose: 100.0 mg/kg/injection, schedule: Q01DX001 (ip), vehicle: gum acacia): 92 % of control
- T/C (dose: 100.0 mg/kg/injection, schedule: Q01DX009 (ip), vehicle: gum acacia): 94 % of control
- T/C (dose: 100.0 mg/kg/injection, schedule: Q04DX003 (ip), vehicle: gum acacia): 102 % of control

Compound: CCn1c(C)[n+](CCCOS(=O)(=O)[O-])c2ccccc21
- T/C (dose: 100.0 mg/kg/injection, schedule: Q04DX003 (ip), vehicle: saline): 97 % of control
- T/C (dose: 200.0 mg/kg/injection, schedule: Q04DX003 (ip), vehicle: saline): 106 % of control

Compound: O=c1[nH]cc(F)c(=O)[nH]1.[Tl]
- T/C (dose: 3.12 mg/kg/injection, schedule: Q04DX003 (ip), vehicle: water): 108 % of control
- T/C (dose: 6.25 mg/kg/injection, schedule: Q04DX003 (ip), vehicle: water): 107 % of control
- T/C (dose: 12.5 mg/kg/injection, schedule: Q01DX009 (ip), vehicle: Klucel (hydroxypropylcellulose) (HPC)): 102 % of control
- T/C (dose: 12.5 mg/kg/injection, schedule: Q04DX003 (ip), vehicle: water): 118 % of control

Compound: O=C(N/N=C/c1ccc(Cl)cc1)C(O)c1ccccc1 (stereo not given)
- T/C [2]: 87 % of control
- T/C [3]: 87 % of control
- T/C [5]: 89 % of control

Compound: CN(C)NCCC#N
- T/C (dose: 66.0 mg/kg/injection, schedule: Q01DX009 (ip), vehicle: saline): 118 % of control
- T/C (dose: 75.0 mg/kg/injection, schedule: Q01DX009 (ip), vehicle: saline): 116 % of control
- T/C (dose: 100.0 mg/kg/injection, schedule: Q01DX009 (ip), vehicle: saline sonified): 98 % of control
- T/C [4]: 116 % of control
- T/C (dose: 200.0 mg/kg/injection, schedule: Q01DX009 (ip), vehicle: saline sonified): 111 % of control

Compound: c1cc(C2CO2)ccc1Oc1ccc(C2CO2)cc1 (stereo not given)
- T/C (dose: 1.0 mg/kg/injection, schedule: Q01DX Z (ip), vehicle: methylcellulose (MC)): 96 % of control
- T/C (dose: 3.3 mg/kg/injection, schedule: Q01DX Z (ip), vehicle: methylcellulose (MC)): 98 % of control
- T/C (dose: 10.0 mg/kg/injection, schedule: Q01DX Z (ip), vehicle: methylcellulose (MC)): 104 % of control
- T/C (dose: 33.0 mg/kg/injection, schedule: Q01DX Z (ip), vehicle: methylcellulose (MC)): 98 % of control
- T/C (dose: 100.0 mg/kg/injection, schedule: Q01DX Z (ip), vehicle: methylcellulose (MC)): 86 % of control

Compound: NC(CCCc1ccccc1)C(=O)O (stereo not given)
- T/C (dose: 50.0 mg/kg/injection, schedule: Q04DX003 (ip), vehicle: Klucel (hydroxypropylcellulose) (HPC)): 98 % of control
- T/C (dose: 100.0 mg/kg/injection, schedule: Q04DX003 (ip), vehicle: Klucel (hydroxypropylcellulose) (HPC)): 96 % of control
- T/C (dose: 200.0 mg/kg/injection, schedule: Q04DX003 (ip), vehicle: Klucel (hydroxypropylcellulose) (HPC)): 88 % of control
- T/C (dose: 400.0 mg/kg/injection, schedule: Q04DX003 (ip), vehicle: Klucel (hydroxypropylcellulose) (HPC)): 94 % of control

Compound: Nc1ncnc2nc(-c3ccc(OCCCOc4ccccc4)c(Cl)c3)[nH]c12
- T/C (dose: 6.25 mg/kg/injection, schedule: Q01DX001 (ip), vehicle: saline with Tween-80): 94 % of control
- T/C (dose: 12.5 mg/kg/injection, schedule: Q01DX001 (ip), vehicle: saline with Tween-80): 89 % of control
- T/C (dose: 50.0 mg/kg/injection, schedule: Q01DX001 (ip), vehicle: saline with Tween-80): 88 % of control

Compound: CC12CCC(O)CC1=CCC1C2CCC2(C)c3nc(C#N)c(=N)n(O)c3CC12 (stereo not given)
- T/C [6]: 94 % of control
- T/C [7]: 105 % of control

Compound: Nc1nc(N)nc(CBr)n1
- T/C (dose: 12.5 mg/kg/injection, schedule: Q01DX001 (ip), vehicle: Klucel (hydroxypropylcellulose) (HPC)): 103 % of control
- T/C (dose: 50.0 mg/kg/injection, schedule: Q01DX001 (ip), vehicle: Klucel (hydroxypropylcellulose) (HPC)): 115 % of control

Compound: Nc1ccc(N)c(N)n1
- T/C (dose: 6.25 mg/kg/injection, schedule: Q04DX003 (ip), vehicle: saline): 95 % of control
- T/C (dose: 12.5 mg/kg/injection, schedule: Q04DX003 (ip), vehicle: saline): 97 % of control
- T/C (dose: 15.0 mg/kg/injection, schedule: Q01DX001 (ip), vehicle: saline): 107 % of control
- T/C (dose: 25.0 mg/kg/injection, schedule: Q04DX003 (ip), vehicle: saline): 97 % of control
- T/C (dose: 30.0 mg/kg/injection, schedule: Q01DX001 (ip), vehicle: saline): 107 % of control
- T/C (dose: 60.0 mg/kg/injection, schedule: Q01DX001 (ip), vehicle: saline): 97 % of control

Compound: Cc1cc(Cl)c(Cl)cc1NC(=O)c1ccc(Cl)cc1Cl
- T/C [6]: 108 % of control
- T/C [7]: 94 % of control
- T/C (dose: 400.0 mg/kg/injection, schedule: Q04DX002 (ip), vehicle: Klucel (hydroxypropylcellulose) (HPC)): 108 % of control

Compound: O=C(NOCc1cscn1)NC1CCCCC1
- T/C [8]: 98 % of control

Compound: C=CC(C)NC(=S)NNC(=S)NC (stereo not given)
- T/C (dose: 15.0 mg/kg/injection, schedule: Q01DX015 (ip), vehicle: carboxymethylcellulose (CMC)): 95 % of control
- T/C (dose: 30.0 mg/kg/injection, schedule: Q01DX015 (ip), vehicle: carboxymethylcellulose (CMC)): 104 % of control
- T/C (dose: 50.0 mg/kg/injection, schedule: Q01DX001 (ip), vehicle: carboxymethylcellulose (CMC)): 104 % of control
- T/C (dose: 60.0 mg/kg/injection, schedule: Q01DX015 (ip), vehicle: carboxymethylcellulose (CMC)): 95 % of control
- T/C (dose: 100.0 mg/kg/injection, schedule: Q01DX001 (ip), vehicle: carboxymethylcellulose (CMC)): 105 % of control
- T/C (dose: 120.0 mg/kg/injection, schedule: Q01DX015 (ip), vehicle: carboxymethylcellulose (CMC)): 98 % of control
- T/C (dose: 200.0 mg/kg/injection, schedule: Q01DX001 (ip), vehicle: carboxymethylcellulose (CMC)): 109 % of control
- T/C (dose: 240.0 mg/kg/injection, schedule: Q01DX015 (ip), vehicle: carboxymethylcellulose (CMC)): 87 % of control and 89 % of control

Compound: Cc1ccc(S(=O)(=O)NNC(=O)c2ccc(-c3ccc[nH]3)[nH]2)cc1
- T/C [8]: 93 % of control
- T/C (dose: 150.0 mg/kg/injection, schedule: Q01DX001 (ip), vehicle: saline): 92 % of control
- T/C (dose: 300.0 mg/kg/injection, schedule: Q01DX001 (ip), vehicle: saline): 98 % of control

Compound: CCCCOC(=O)c1ccc(NC(=O)Nc2c(C)cccc2C)cc1
- T/C (dose: 100.0 mg/kg/injection, schedule: Q01DX009 (ip), vehicle: other): 98 % of control
- T/C (dose: 200.0 mg/kg/injection, schedule: Q01DX009 (ip), vehicle: other): 89 % of control
- T/C (dose: 400.0 mg/kg/injection, schedule: Q01DX009 (ip), vehicle: other): 89 % of control

Compound: O=C1c2cccc3c(Br)ccc(c23)C(=O)N1CCCN1CCOCC1
- T/C (dose: 25.0 mg/kg/injection, schedule: Q01DX009 (ip), vehicle: Klucel (hydroxypropylcellulose) (HPC)): 97 % of control
- T/C [1]: 90 % of control
- T/C [2]: 102 % of control
